Converted amounts (≈) assume the structure as drawn.

Common to all, as to format: functional
Assay [1] relates to Pseudomonas aeruginosa. Briefly: Antimicrobial activity against Pseudomonas aeruginosa ATCC 9027 by agar well diffusion method.
In assay [2] the test system is Escherichia coli. Kind of assay: Antimicrobial activity against Escherichia coli ATCC 8739 by agar dilution method.
Assay [3] concerns Staphylococcus aureus. Briefly: Antimicrobial activity against Staphylococcus aureus ATCC 6538 by agar dilution method. For orientation: In agar dilution, organisms are placed on agar that contains the substance at set levels.
The subject of assay [4] is Escherichia coli. Kind of assay: Antimicrobial activity against Escherichia coli ATCC 25922 incubated for 18 to 24 hrs.
Assay [5] deals with Staphylococcus epidermidis. Briefly: Antimicrobial activity against methicillin-resistant Staphylococcus epidermidis 12-1 incubated for 18 to 24 hrs.
Assay [6] relates to Staphylococcus aureus. Kind of assay: Antimicrobial activity against methicillin-resistant Staphylococcus aureus ATCC 12-1 incubated for 18 to 24 hrs.
In assay [7] the test system is Staphylococcus aureus. Kind of assay: Antimicrobial activity against Staphylococcus aureus ATCC 25923 incubated for 18 to 24 hrs.
In assay [8] the test system is Pseudomonas aeruginosa. Briefly: Antimicrobial activity against Pseudomonas aeruginosa ATCC 12-12 incubated for 18 to 24 hrs.

In the case of `CCn1cc(C(=O)O)c(=O)c2cc(F)c(N3CCCC3)c(Cl)c21`, the MIC against Pseudomonas aeruginosa [1] was 8 µg/mL (≈ 23.6 µM); in the assay on Escherichia coli [2], 16 µg/mL (≈ 47.2 µM); in the assay on Staphylococcus aureus [3], under 0.125 µg/mL.

Turning to `CCn1cc(C(=O)O)c(=O)c2cc(F)c(N3CCCC3)cc21`, the MIC was found to be 16 µg/mL (≈ 52.6 µM) against Pseudomonas aeruginosa [1], 16 µg/mL (≈ 52.6 µM) against Escherichia coli [2] and 0.25 µg/mL (≈ 0.822 µM) against Staphylococcus aureus [3].

Regarding `CO/N=C1\CCN(c2c(F)cc3c(=O)c(C(=O)O)cn(C4CC4)c3c2OC)CC1NC(=O)[C@H](C)N` (some centres undefined), the minimal inhibitory concentration (MIC) against Escherichia coli [4] turned out to be 4 µg/mL (≈ 8.17 µM); in assay [5], 32 µg/mL (≈ 65.4 µM); against Staphylococcus aureus [6], 64 µg/mL (≈ 131 µM); with Staphylococcus aureus [7] it was 0.125 µg/mL (≈ 0.255 µM); in the assay with Pseudomonas aeruginosa [8] it was 64 µg/mL (≈ 131 µM).

With `CCn1cc(C(=O)O)c(=O)c2cc(F)c(N3CCCC(C)C3)cc21` (centres undefined), the MIC in the assay with Pseudomonas aeruginosa [1] is 1.28 µg/mL (≈ 3.85 µM); in the assay on Escherichia coli [2], 1.28 µg/mL (≈ 3.85 µM); in the assay on Staphylococcus aureus [3], under 0.125 µg/mL.

With `CO/N=C1\CCN(c2c(F)cc3c(=O)c(C(=O)O)cn(C4CC4)c3c2OC)CC1NC(=O)[C@H]1CCCN1` (some centres undefined), the MIC in the assay on Escherichia coli [4] amounted to 4 µg/mL (≈ 7.76 µM); in assay [5] it was 64 µg/mL (≈ 124 µM); in the assay on Staphylococcus aureus [6], 64 µg/mL (≈ 124 µM); in the assay with Staphylococcus aureus [7], 0.25 µg/mL (≈ 0.485 µM); in the assay on Pseudomonas aeruginosa [8] it was 64 µg/mL (≈ 124 µM).

For `CO/N=C1\CCN(c2c(F)cc3c(=O)c(C(=O)O)cn(C4CC4)c3c2OC)CC1NC(=O)[C@H](N)[C@H](C)O` (some centres undefined), the MIC in the assay with Escherichia coli [4] stood at 16 µg/mL (≈ 30.8 µM); in assay [5], 64 µg/mL (≈ 123 µM); against Staphylococcus aureus [6] it was 128 µg/mL (≈ 246 µM); in the assay with Staphylococcus aureus [7], 2 µg/mL (≈ 3.85 µM); against Pseudomonas aeruginosa [8], 64 µg/mL (≈ 123 µM).

On to `CO/N=C1\CCN(c2c(F)cc3c(=O)c(C(=O)O)cn(C4CC4)c3c2OC)CC1NC(=O)[C@H](N)CO` (some centres undefined), for which the MIC against Escherichia coli [4] is 16 µg/mL (≈ 31.7 µM); in assay [5], 64 µg/mL (≈ 127 µM); in the assay with Staphylococcus aureus [6], 64 µg/mL (≈ 127 µM); in the assay with Staphylococcus aureus [7], 1 µg/mL (≈ 1.98 µM); with Pseudomonas aeruginosa [8], 128 µg/mL (≈ 253 µM).

As for `CO/N=C1\CCN(c2c(F)cc3c(=O)c(C(=O)O)cn(C4CC4)c3c2OC)CC1NC(=O)[C@@H](N)C(C)C` (some centres undefined), the MIC worked out at 4 µg/mL (≈ 7.73 µM) against Escherichia coli [4]; 64 µg/mL (≈ 124 µM) in assay [5]; 64 µg/mL (≈ 124 µM) against Staphylococcus aureus [6]; 0.25 µg/mL (≈ 0.483 µM) against Staphylococcus aureus [7]; 32 µg/mL (≈ 61.8 µM) with Pseudomonas aeruginosa [8].

`CO/N=C1\CCN(c2c(F)cc3c(=O)c(C(=O)O)cn(C4CC4)c3c2OC)CC1NC(=O)[C@H](N)CC(C)C` (some centres undefined): the MIC was found to be 4 µg/mL (≈ 7.52 µM) against Escherichia coli [4]; 64 µg/mL (≈ 120 µM) in assay [5]; 64 µg/mL (≈ 120 µM) against Staphylococcus aureus [6]; 0.25 µg/mL (≈ 0.47 µM) with Staphylococcus aureus [7]; 128 µg/mL (≈ 241 µM) with Pseudomonas aeruginosa [8].

Take `CO/N=C1\CCN(c2c(F)cc3c(=O)c(C(=O)O)cn(C4CC4)c3c2OC)CC1NC(=O)[C@H](N)Cc1ccc(O)cc1` (some centres undefined): the MIC was 16 µg/mL (≈ 27.5 µM) in the assay with Escherichia coli [4]; 64 µg/mL (≈ 110 µM) in assay [5]; over 128 µg/mL in the assay with Staphylococcus aureus [6]; 2 µg/mL (≈ 3.44 µM) against Staphylococcus aureus [7]; 128 µg/mL (≈ 220 µM) against Pseudomonas aeruginosa [8].

`CCC(C)[C@H](N)C(=O)NC1CN(c2c(F)cc3c(=O)c(C(=O)O)cn(C4CC4)c3c2OC)CC/C1=N\OC` (some centres undefined): the MIC against Escherichia coli [4] was 8 µg/mL (≈ 15 µM); in assay [5], 64 µg/mL (≈ 120 µM); against Staphylococcus aureus [6], 64 µg/mL (≈ 120 µM); in the assay with Staphylococcus aureus [7], 0.5 µg/mL (≈ 0.941 µM); in the assay on Pseudomonas aeruginosa [8] it was 128 µg/mL (≈ 241 µM).

As for `CO/N=C1\CCN(c2c(F)cc3c(=O)c(C(=O)O)cn(C4CC4)c3c2OC)CC1NC(=O)C(C)NC(=O)C(C)N` (centres undefined), the MIC with Escherichia coli [4] was 32 µg/mL (≈ 57.1 µM); in assay [5], 64 µg/mL (≈ 114 µM); with Staphylococcus aureus [6], over 128 µg/mL; against Staphylococcus aureus [7], 4 µg/mL (≈ 7.14 µM); in the assay with Pseudomonas aeruginosa [8], 128 µg/mL (≈ 228 µM).

`CO/N=C1\CCN(c2c(F)cc3c(=O)c(C(=O)O)cn(C4CC4)c3c2OC)CC1NC(=O)CNC(=O)CN` (centres undefined): the MIC was 16 µg/mL (≈ 30 µM) against Escherichia coli [4]; 64 µg/mL (≈ 120 µM) in assay [5]; over 128 µg/mL against Staphylococcus aureus [6]; 4 µg/mL (≈ 7.51 µM) against Staphylococcus aureus [7]; over 128 µg/mL with Pseudomonas aeruginosa [8].

`CO/N=C1\CCN(c2c(F)cc3c(=O)c(C(=O)O)cn(C4CC4)c3c2OC)CC1NC(=O)CN` (centres undefined): the minimal inhibitory concentration (MIC) in the assay with Escherichia coli [4] worked out at 4 µg/mL (≈ 8.41 µM); in assay [5] it was 32 µg/mL (≈ 67.3 µM); with Staphylococcus aureus [6], 32 µg/mL (≈ 67.3 µM); against Staphylococcus aureus [7], 0.25 µg/mL (≈ 0.526 µM); with Pseudomonas aeruginosa [8] it was 32 µg/mL (≈ 67.3 µM).

Turning to `CO/N=C1\CCN(c2c(F)cc3c(=O)c(C(=O)O)cn(C4CC4)c3c2OC)CC1NC(=O)[C@H](N)Cc1ccccc1` (some centres undefined), the MIC came to 16 µg/mL (≈ 28.3 µM) against Escherichia coli [4]; 64 µg/mL (≈ 113 µM) in assay [5]; 64 µg/mL (≈ 113 µM) with Staphylococcus aureus [6]; 0.125 µg/mL (≈ 0.221 µM) in the assay with Staphylococcus aureus [7]; 128 µg/mL (≈ 226 µM) in the assay on Pseudomonas aeruginosa [8].

The MIC is the smallest concentration in the dilution series that meets the test's criterion for growth inhibition. The low end stands for greater potency, the high end for weaker potency.

(Values after ChEMBL document CHEMBL4602605, “Fluoroquinolones structural and medicinal developments (2013-2018): Where are we now?” (Bioorg Med Chem, 2019).)
